This assay deals with Escherichia coli. The assay can be described thus: Antibacterial activity against Escherichia coli HS294 after 18 hrs by microtitre plate method. The assay is classed as functional.

In brackets after ≈: the same amount, converted by molar mass.

A word on the MIC: it is the lowest concentration that inhibits growth of the organism. `C[C@H]1CCCC[C@H]2C(=O)C=C[C@H](O)[C@@H]2CC(=O)O1` returned an MIC of 40 µg/mL (≈ 159 µM).

These data come from ChEMBL document CHEMBL1147255, “Isolation and structure elucidation of Sch 642305, a novel bacterial DNA primase inhibitor produced by Penicillium verrucosum” (J Nat Prod, 2003).
